Test results published in patent publication US20110212111A1, “MHC II Associated Protein and Uses Thereof” (priority 2008, published 2011).

How the values were obtained:
[1] = test system: MPYS; experiment: MPYS oxidation (disulfide bonded homodimer, non-reducing SDS-PAGE); assay type: cell-based; settings: ER stress inducer; cells not given
Source text: (§1) It was also noticed that after the thiol reductase reaction, a large portion of MPYS occurs in a ˜80 kDa SDS resistant form consistent with the predicted size of a homodimer. The present inventors have shown that MPYS is dimeric in mouse B cells. To determine whether MPYS occurs as a non-disulfide-bonded dimer that becomes […] disulfide bonded upon oxidation, the chemical crosslinker Dithiobis[succinimidyl propionate] (DSP) was used to detect the endogenous MPYS complex in mouse splenocytes. In non-reducing SDS-PAGE, DSP treated MPYS ran as a single band of ˜80 kDa, the predicted size of a MPYS homodimer while non-DSP treated mock (or DTT treated) MPYS ran at the monomer size (˜40 kDa). It was also discovered that Flag-tagged MPYS associates with HA-MPYS when the two were co-expressed. Thus, the ˜80 kDa band seen on the non-reducing gels is a MPYS homodimer. Since this homodimer is sensitive to SDS, its dimerization is not mediated by intermolecular disulfide bonds.
(§2) The appearance of the SDS resistant MPYS homodimer after the thiol reductase reaction indicated the formation of intermolecular disulfide bonds in homodimeric MPYS is a consequence of oxidation. […] […] H2O2) and the thiol reductase reaction can lead to formation of intermolecular disulfide bonds in homodimeric MPYS.

[2] = target: T1, MPYS (Mus musculus, UniProt Q3TBT3); experiment: as above; assay type: cell-based; settings: RAW264.7 cells
T1 construct: used to detect the endogenous MPYS complex in mouse splenocytes; endogenous in cells; host or cells: mouse splenocytes; K46 mouse B lymphoma cells; RAW264.7 mouse macrophage cells
T1 sequence (Q3TBT3 1-378): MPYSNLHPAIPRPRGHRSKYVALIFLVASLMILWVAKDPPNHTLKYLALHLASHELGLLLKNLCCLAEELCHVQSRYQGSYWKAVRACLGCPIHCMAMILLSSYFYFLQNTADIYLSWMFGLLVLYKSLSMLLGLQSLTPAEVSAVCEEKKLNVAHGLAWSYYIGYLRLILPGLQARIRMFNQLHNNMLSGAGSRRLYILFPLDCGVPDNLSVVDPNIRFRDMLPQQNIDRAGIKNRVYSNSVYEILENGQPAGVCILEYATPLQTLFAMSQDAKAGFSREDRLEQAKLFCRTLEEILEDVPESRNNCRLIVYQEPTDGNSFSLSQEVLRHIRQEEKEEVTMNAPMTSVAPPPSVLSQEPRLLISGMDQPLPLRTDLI
Source text: as §1, §2

[3] = test system: K46 B lymphoma cells; experiment: MHC II mAb-induced cell death of K46 cells (Annexin V/PI, DiOC6/PI flow cytometry); assay type: cell-based, murine; settings: for effect of inhibitor on MHC II mAb-induced death response: K46 cells pre-treated with inhibitor
Experimental: K46 cells were suspended in 5% complete IMDM media at a concentration of 10^6 cells/mL and then transferred to round bottomed 96-well plates (100 μL/well) and cultured at 37° C. for 1 h. Biotinylated MHC II mAbs were added into the wells and incubated for 12 min. Avidin was then added into the wells and cells were cultured for the indicated time. PI (2 μg/mL) and Annexin V-Alexa Fluor 488 (1 μL/100 μL cells) (A-13201, Molecular Probes), or DiOC6 (50 nM) and PI (2 μg/mL) was used to measure apoptotic or dead cells by flow cytometry.
(§3) ERK inhibitor PD98059 (Calbiochem, 513000), AKT inhibitor LY294002 (Calbiochem, 440202), and p38 inhibitor SB203580 (Calbiochem, 559389) were used in this study. The inhibitor was added to cells at 5×10^6 cells/mL and cultured for 4 hrs. Samples were then split into 1×10^6 cells/mL and cell death was induced and measured as above. To inhibit src kinase, PP2 (Calbiochem, 529573) was added into cells and cultured for 30 min before cell death was induced as above.

[4] = test system: ERK; experiment: MHC II induced ERK activation (phospho-ERK blotting); assay type: cell-based, murine; settings: K46 cells; PD98059 at 50 μM
Experimental: as §3
(§4) Cells were lysed in 0.33% CHAPS buffer (150 mM NaCl, 10 mM Tris pH 7.5, 10 mM sodium pyrophosphate, 2 mM Na3VO4, 10 mM NaF, 0.4 mM EDTA, 1 mM PMSF, and 1 μg/mL each of aprotinin, α1-antitrypsin, and leupeptin) (40×10^6/mL) at 4° C. for 1.5 h or overnight. Cell lysates were centrifuged at 12,000 g at 4° C. for 20 min. Supernatants were analyzed on a 10% SDS-PAGE gel. The gel was transferred to a PVDF membrane and proteins were probed with Abs and visualized using an ODYSSEY Infrared Imaging System (LI-COR). […]

[5] = test system: calcium mobilization in K46 cells; experiment: MHC II mAb-induced calcium mobilization (Indo-1AM); assay type: cell-based, murine
Experimental: Cells were loaded with Indo-1AM (Molecular Probes, Eugene, Oreg.) for 30 min at 37° C. as recommended by the manufacturer. Anti-MHC II mAb (10 μg/mL) was then added to the suspension for another 12 min at 37° C. before cells were washed and suspended in IMDM supplemented with 2% FCS. The cells (10^6 cells/mL) were analyzed before and after stimulation via cros slinking with avidin (20 μg/mL). Data were analyzed by Flow-Jo software (Tree Star, Inc., San Carlos, Calif.).

[6] = test system: tyrosine phosphorylation in K46 cells; experiment: MHC II mAb-induced tyrosine phosphorylation (immunoblotting); assay type: cell-based, murine
Experimental: as §3, §4

[7] = test system: TLR4-293T cells; experiment: Measurement of intracellular ROS (H2DCFDA flow cytometry); assay type: cell-based, human
Experimental: Cells were washed and suspended in PBS, and then culture with H2DCFDA (5 μM) (Invitrogen, D399) for 20 min at 37° C. They were then washed in PBS and the fluorescence was measured by flow cytometry.

[8] = test system: IFNβ promoter; experiment: MPYS induced IFNβ reporter activation in TLR4-293 cells; assay type: cell-based, human; settings: TLR4-293T / TLR4-293GT cells
Experimental: (§5) 293 GT cells and their derivatives (˜1×10^5) were seeded in 24-well dishes and transfected the following day using Effectene transfection reagent kit (Qiagen, cat #301427). Reporter assays were performed as previous described. Id.
(§6) Cells were seeded in 24-well dishes (˜1×10^5/ml) and transfected the following day using Effectene transfection reagent kit (Qiagen, 301427). Reporter assays were performed as previous described by Bin et al., in J Biol. Chem., 2003, 278, 24526-24532. All experiments were repeated at least three times and results are representative.

[9] = test system: NFκB; experiment: MPYS induced NFκB reporter activation in TLR4-293 cells; assay type: cell-based, human; settings: TLR4-293T / TLR4-293GT cells
Experimental: as §5, §6

[10] = test system: RAW264.7 macrophage cells; experiment: Listeria monocytogenes induced IFNβ response in RAW264.7 cells (IFNβ-luc); assay type: cell-based, mouse
Experimental: RAW264.7, K46 B lymphoma cells and the 293GT cells were maintained in IMDM supplemented with 5% FBS. 293MT cells were maintained in DMEM (GIBCO, cat: 11965), 5% FBS (Biosource, 200p-500HI), sodium pyruvate (GIBCO 11360, 1 mM), HEPES buffer (GIBCO 15630-080, 10 mM) and 2-ME (50 μM) (Life Technologies, Gaithersburg Md.). The RAW264.7 cells stably expressing the IFNβ-Luciferase construct were generated by co-transfecting RAW264.7 cells with pGL3-IFNβ-Luciferase (Promega) and p-Puromycin plasmids (Clonetch). The stable cell line was established under puromycin selection (4 μg/ml).
RAW264.7 cells expressing the IFNβ-luc construct were infected with Listeria monocytogenes strain 10403S at multiplicity of five bacteria/cell. Cells were washed at 1 h after infection. Live bacterial were killed by addition of gentamicin. Whole cell lysates were prepared 5.5 h after infection. Luciferase activity was read with BD Monolight kit and Synergy reader.

**Q.** C[C@H]1CCC/C=C/[C@@H]2C[C@H](O)C[C@H]2[C@H](O)/C=C/C(=O)O1 [Brefeldin A] was tested. Which “formation of oxidized MPYS” value [1] did it give?
**A.** generated oxidized MPYS

**Q.** For OO [H2O2], which “formation of oxidized MPYS” value [2] is on record?
**A.** led to the formation of oxidized MPYS

**Q.** Which “effect of inhibitor on MHC II mAb-induced death response” value [3] does the source give for O=c1cc(N2CCOCC2)oc2c(-c3ccccc3)cccc12 [LY294002] here?
**A.** no significant effect

**Q.** COc1cccc(-c2cc(=O)c3ccccc3o2)c1N [PD98059] was tested. Which “inhibition of MHC II mediated cell death” value ([3]; inhibitor at 50 μM, K46 cells) did it give?
**A.** about 50%

**Q.** And the “effect on MHC II induced ERK activation” value [4]?
**A.** did not completely inhibit

**Q.** What does the source list for CC(C)(C)n1nc(-c2ccc(Cl)cc2)c2c(N)ncnc21 [PP2]?
**A.** effect on MHC II mAb-induced calcium responses [5]: blocked; effect on MHC II mAb-induced tyrosine phosphorylation ([6]; K46 cells): blocked; effect on MPYS tyrosine phosphorylation and recruitment of SHP-1 and SHIP-1 ([6]; after MHC class II aggregation): blocked; effect of inhibitor on MHC II mAb-induced death response [3]: remained largely intact; effect on MHC II induced ERK activation [4]: neither MHC class II-mediated activation of ERK nor apoptosis was inhibited

**Q.** With C[S+]([O-])c1ccc(-c2nc(-c3ccncc3)c(-c3ccc(F)cc3)[nH]2)cc1 (centres unmarked) [SB203580] as the compound, how does the “effect of inhibitor on MHC II mAb-induced death response” value [3] read?
**A.** no significant effect

**Q.** Which results are given for C=C(C)[C@H]1Cc2c(ccc3c2O[C@@H]2COc4cc(OC)c(OC)cc4[C@@H]2C3=O)O1 [rotenone]?
**A.** formation of oxidized MPYS [2]: led to the formation of oxidized MPYS; cellular ROS level [7]: increased cellular ROS level; effect on MPYS induced IFNβ reporter activation [8]: completely inhibited; effect on MPYS induced NFκB reporter activation [9]: completely inhibited; effect on Listeria monocytogenes induction of IFNβ production [10]: significantly inhibited

**Q.** With Poly(I:C) as the compound, how does the “formation of oxidized MPYS” value [2] read?
**A.** did not generate oxidized MPYS
